Assays:
Type in all cases: biochemical
BTK-WT = molecular target: T1, BTK-WT (Homo sapiens, UniProt Q06187); test: Btk in vitro inhibitory activity (one of Method A TR-FRET, Method B electrophoretic mobility shift, Method C radiometric filter binding); details: Table 13, A compounds; read-out: IC50 BTK-WT
T1 construct: purified from insect cells as a full-length construct containing an N-terminal 6X-His tag; His6 (N); made in house; host or cells: insect cells (baculovirus Sf21 in Method B)

LCK = LCK (Homo sapiens, UniProt P06239); test: Inhibition of a panel of kinases, in vitro HotSpot kinase assay: LCK; details: Table 13, A compounds; 1 μM ATP; read-out: IC50 LCK
Sequence of LCK (P06239 whole entry): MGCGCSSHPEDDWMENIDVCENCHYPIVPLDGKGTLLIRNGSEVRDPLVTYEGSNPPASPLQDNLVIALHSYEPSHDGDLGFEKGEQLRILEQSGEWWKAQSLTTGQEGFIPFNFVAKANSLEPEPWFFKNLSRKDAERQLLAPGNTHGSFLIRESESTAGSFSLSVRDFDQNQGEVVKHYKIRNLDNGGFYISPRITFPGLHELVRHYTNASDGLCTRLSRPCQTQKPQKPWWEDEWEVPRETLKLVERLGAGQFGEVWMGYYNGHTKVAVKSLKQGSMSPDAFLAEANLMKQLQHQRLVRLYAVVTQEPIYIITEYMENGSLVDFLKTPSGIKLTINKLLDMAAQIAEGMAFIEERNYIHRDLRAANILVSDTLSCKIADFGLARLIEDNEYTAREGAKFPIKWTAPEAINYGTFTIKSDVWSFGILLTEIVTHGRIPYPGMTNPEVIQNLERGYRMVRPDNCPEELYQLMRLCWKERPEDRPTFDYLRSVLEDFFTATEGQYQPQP

ITK = molecular target: T2, ITK (Homo sapiens, UniProt Q08881); test: Inhibition of a panel of kinases, in vitro HotSpot kinase assay: ITK; details: Table 13, A compounds; 1 μM ATP
T2 sequence (Q08881 1-620): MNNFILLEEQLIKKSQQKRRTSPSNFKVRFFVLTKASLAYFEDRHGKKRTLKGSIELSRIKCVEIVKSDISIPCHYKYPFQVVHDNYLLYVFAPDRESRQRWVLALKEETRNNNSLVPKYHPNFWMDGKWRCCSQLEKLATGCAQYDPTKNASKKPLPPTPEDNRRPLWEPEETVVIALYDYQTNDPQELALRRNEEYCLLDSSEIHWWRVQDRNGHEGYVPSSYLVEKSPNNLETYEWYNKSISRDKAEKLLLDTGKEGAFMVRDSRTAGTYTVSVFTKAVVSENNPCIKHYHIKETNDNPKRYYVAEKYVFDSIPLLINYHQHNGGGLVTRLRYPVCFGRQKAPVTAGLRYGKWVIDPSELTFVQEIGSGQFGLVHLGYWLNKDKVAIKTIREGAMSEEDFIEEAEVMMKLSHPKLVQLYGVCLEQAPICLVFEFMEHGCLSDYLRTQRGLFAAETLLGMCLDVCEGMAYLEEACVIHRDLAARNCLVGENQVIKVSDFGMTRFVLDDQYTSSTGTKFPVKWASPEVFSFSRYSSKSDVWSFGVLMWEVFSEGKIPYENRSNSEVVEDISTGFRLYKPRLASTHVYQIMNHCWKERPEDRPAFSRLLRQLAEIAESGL
Experimental: (§1) The degree of inhibition of a panel of kinases is determined using the in vitro HotSpot kinase assay (purified enzymes, ^33P-ATP, an appropriate substrate and 1 μM ATP).

EGFR = EGFR (Homo sapiens, UniProt P00533); test: Inhibition of a panel of kinases, in vitro HotSpot kinase assay: EGFR; details: Table 13, A compounds; 1 μM ATP
Sequence of EGFR (P00533 25-1210): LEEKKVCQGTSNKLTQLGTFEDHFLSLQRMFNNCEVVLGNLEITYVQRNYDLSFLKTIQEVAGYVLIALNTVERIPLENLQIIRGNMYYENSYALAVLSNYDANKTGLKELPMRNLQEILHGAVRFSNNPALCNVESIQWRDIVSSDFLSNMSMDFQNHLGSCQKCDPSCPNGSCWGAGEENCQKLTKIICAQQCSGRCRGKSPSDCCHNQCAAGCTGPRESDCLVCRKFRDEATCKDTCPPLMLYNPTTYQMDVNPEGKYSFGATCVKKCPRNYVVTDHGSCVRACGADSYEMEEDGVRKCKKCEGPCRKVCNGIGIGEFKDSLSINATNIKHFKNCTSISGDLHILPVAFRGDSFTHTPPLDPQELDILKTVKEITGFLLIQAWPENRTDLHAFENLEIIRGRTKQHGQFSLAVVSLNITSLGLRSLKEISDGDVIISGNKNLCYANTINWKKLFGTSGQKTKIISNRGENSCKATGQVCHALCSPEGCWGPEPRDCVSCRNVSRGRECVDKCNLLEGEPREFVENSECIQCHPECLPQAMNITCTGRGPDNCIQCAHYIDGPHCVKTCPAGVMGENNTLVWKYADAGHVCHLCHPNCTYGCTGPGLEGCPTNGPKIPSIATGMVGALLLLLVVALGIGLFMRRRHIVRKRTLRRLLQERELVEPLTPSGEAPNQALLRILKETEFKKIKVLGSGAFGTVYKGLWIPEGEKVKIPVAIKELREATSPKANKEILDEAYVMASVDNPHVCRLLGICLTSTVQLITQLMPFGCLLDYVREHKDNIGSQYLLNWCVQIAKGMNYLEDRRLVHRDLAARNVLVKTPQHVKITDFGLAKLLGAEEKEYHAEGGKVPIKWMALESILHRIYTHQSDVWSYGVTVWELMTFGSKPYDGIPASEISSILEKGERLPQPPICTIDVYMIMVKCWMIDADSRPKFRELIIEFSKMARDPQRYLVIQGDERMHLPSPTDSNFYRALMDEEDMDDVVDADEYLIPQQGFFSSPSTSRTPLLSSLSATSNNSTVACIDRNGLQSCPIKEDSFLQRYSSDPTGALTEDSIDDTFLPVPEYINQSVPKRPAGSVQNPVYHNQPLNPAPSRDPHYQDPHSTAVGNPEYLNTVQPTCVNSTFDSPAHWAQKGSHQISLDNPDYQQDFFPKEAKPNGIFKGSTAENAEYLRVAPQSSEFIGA
Experimental: as §1

SRC = SRC (Homo sapiens, UniProt P12931); test: Inhibition of a panel of kinases, in vitro HotSpot kinase assay: SRC; details: Table 13, A compounds; 1 μM ATP
Sequence of SRC (P12931 whole entry): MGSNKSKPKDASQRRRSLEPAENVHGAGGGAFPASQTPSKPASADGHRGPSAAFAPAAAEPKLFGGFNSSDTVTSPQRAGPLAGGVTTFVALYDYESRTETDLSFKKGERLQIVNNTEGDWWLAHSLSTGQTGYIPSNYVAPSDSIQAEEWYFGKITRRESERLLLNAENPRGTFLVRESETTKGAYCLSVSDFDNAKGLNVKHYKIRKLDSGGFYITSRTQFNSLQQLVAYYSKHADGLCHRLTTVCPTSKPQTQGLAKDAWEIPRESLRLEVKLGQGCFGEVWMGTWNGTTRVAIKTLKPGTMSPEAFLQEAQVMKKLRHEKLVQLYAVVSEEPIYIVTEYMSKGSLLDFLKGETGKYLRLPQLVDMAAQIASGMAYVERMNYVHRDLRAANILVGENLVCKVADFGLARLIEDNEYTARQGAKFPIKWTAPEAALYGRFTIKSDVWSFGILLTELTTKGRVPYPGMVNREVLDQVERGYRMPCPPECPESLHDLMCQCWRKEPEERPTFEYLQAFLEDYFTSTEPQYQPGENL
Experimental: as §1

TEC = molecular target: T3, TEC (Homo sapiens, UniProt P42680); test: Inhibition of a panel of kinases, in vitro HotSpot kinase assay: TEC; details: Table 13, A compounds; 1 μM ATP
T3 sequence (P42680 1-631): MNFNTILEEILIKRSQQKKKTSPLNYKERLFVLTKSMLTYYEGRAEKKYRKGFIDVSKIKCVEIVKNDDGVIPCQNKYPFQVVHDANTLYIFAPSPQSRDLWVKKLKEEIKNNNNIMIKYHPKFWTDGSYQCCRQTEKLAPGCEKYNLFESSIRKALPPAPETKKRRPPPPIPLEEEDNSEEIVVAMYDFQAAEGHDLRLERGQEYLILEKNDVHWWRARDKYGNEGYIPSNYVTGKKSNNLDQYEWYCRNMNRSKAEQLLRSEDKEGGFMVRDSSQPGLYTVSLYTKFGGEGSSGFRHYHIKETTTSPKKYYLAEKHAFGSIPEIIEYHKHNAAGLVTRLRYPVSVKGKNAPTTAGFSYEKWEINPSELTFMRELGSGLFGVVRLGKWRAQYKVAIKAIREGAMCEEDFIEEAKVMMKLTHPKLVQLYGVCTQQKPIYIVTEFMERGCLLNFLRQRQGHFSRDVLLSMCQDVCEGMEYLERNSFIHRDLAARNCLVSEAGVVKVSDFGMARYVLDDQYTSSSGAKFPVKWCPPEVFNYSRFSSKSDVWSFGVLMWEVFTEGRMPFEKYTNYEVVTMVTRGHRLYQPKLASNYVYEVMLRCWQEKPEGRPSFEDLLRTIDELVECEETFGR
Experimental: as §1

T1 sequence (Q06187 whole entry): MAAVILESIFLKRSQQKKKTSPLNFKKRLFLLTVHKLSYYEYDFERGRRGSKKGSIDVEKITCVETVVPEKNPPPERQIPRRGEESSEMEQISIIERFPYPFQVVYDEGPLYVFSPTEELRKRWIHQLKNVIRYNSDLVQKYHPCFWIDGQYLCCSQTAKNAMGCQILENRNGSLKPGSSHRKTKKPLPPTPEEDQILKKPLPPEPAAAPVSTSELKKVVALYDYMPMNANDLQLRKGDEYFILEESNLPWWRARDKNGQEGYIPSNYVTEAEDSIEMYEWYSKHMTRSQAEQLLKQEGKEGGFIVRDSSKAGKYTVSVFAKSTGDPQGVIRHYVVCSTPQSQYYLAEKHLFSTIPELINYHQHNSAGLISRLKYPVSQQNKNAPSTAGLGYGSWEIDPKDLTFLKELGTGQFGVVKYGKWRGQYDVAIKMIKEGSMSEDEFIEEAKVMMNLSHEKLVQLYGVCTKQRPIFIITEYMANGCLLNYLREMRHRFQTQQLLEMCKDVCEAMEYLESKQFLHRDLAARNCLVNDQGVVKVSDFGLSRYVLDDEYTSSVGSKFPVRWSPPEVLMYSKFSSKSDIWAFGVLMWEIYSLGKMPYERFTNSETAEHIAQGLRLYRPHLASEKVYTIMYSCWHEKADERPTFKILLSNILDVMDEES

| SMILES | IC50 (BTK-WT) [µM] | IC50 (LCK) [µM] | IC50 (ITK) [µM] | IC50 (EGFR) [µM] | IC50 (SRC) [µM] | IC50 (TEC) [µM] |
| --- | --- | --- | --- | --- | --- | --- |
| C[C@@H]1[C@H](NC(=O)c2ccc(C3CC3)cc2F)CCCN1c1cnc(C(N)=O)c(Nc2ccc(S(=O)(=O)N3CCCC3)cc2)n1 [Example A-175, 5-[(2R,3R)-3-(4-cyclopropyl-2-fluorobenzamido)-2-methylpiperidin-1-yl]-3-{[4-(pyrrolidine-1-sulfonyl)phenyl]amino}pyr-azine-2-carboxamide] | ≤ 0.01 | > 10 | > 10 | 1 to 10 | > 10 | 0.1 to 1 |
| C[C@@H]1[C@H](NC(=O)c2ccc(C3CC3)cc2F)CCCN1c1cnc(C(N)=O)c(Nc2ccc(N3CCN(C)C[C@@H]3C)cc2)n1 [Example A-176, 5-[(2R,3R)-3-(4-cyclopropyl-2-fluorobenzamido)-2-methylpiperidin-1-yl]-3-({4-[(2S)-2,4-dimethylpiperazin-1-yl]phenyl}amino)pyrazine-2-carboxamide] | ≤ 0.01 | 0.01 to 0.1 | 0.1 to 1 | 0.1 to 1 | 0.1 to 1 | 0.01 to 0.1 |
| C[C@@H]1[C@H](NC(=O)c2ccc(C3CC3)cc2F)CCCN1c1cnc(C(N)=O)c(Nc2ccc(N3CCN(C)CC3)nc2)n1 [Example A-177, 5-[(2R,3R)-3-(4-cyclopropyl-2-fluorobenzamido)-2-methylpiperidin-1-yl]-3-{[6-(4-methylpiperazin-1-yl)pyridin-3-yl]amino}pyrazine-2-caoxamide] | ≤ 0.01 | 0.1 to 1 | 1 to 10 | 1 to 10 | 0.1 to 1 | 0.1 to 1 |
| CN1CCC(n2cc(Nc3nc(N4CCC[C@@H](n5ccc6cc(C7CC7)ccc6c5=O)C4)cnc3C(N)=O)cn2)CC1 [Example A-178, 5-[(3R)-3-(6-cyclopropyl-1-oxo-1,2-dihydroisoquinolin-2-yl)piperidin-1-yl]-3-{[1-(1-methylpiperidin-4-yl)-1H-pyrazol-4-yl]amino}pyrazine-2-carboxamide] | ≤ 0.01 | 0.1 to 1 | 0.1 to 1 | 1 to 10 | 0.1 to 1 | 0.01 to 0.1 |
| C[C@@H]1[C@H](NC(=O)c2ccc(C3CC3)cn2)CCCN1c1cnc(C(N)=O)c(Nc2ccc(N3CCN(C)CC3)cc2)n1 [Example A-179, 5-[(2R,3R)-3-(5-cyclopropyl-pyridine-2-amido)-2-methylpiperidin-1-yl]-3-{[4-(4-methylpiperazin-1-yl)phenyl]amino}pyrazine-2-carboxamide] | ≤ 0.01 | 0.1 to 1 | 0.1 to 1 | 0.1 to 1 | 0.01 to 0.1 | 0.01 to 0.1 |
| C[C@@H]1[C@H](NC(=O)c2ccc(C3CC3)cc2Cl)CCCN1c1cnc(C(N)=O)c(Nc2ccc(N3CCN(C)CC3)cc2)n1 [Example A-180, 5-[(2R,3R)-3-(2-chloro-4-cyclopropylbenzamido)-2-methylpiperidin-1-yl]-3-{[4-(4-methylpiperazin-1-yl)phenyl]amino}pyrazine-2-carboxamide] | ≤ 0.01 | 0.01 to 0.1 | 0.1 to 1 | 0.1 to 1 | 0.1 to 1 | 0.01 to 0.1 |
| C[C@@H]1[C@H](NC(=O)c2ccc(C3CC3)cc2)CCCN1c1cnc(C(N)=O)c(Nc2cc(CN3CCCCC3)ns2)n1 [Example A-181, 5-[(2R,3R)-3-(4-cyclopropylbenzamido)-2-methylpiperidin-1-yl]-3-{[3-(piperidin-1-ylmethyl)-1,2-thiazol-5-yl]amino}pyrazine-2-carboxamide] | ≤ 0.01 | 0.01 to 0.1 | 0.01 to 0.1 | 1 to 10 | 0.01 to 0.1 | 0.01 to 0.1 |
| C[C@@H]1[C@H](NC(=O)c2ccc(C3CC3)cc2)CCCN1c1cnc(C(N)=O)c(Nc2cnn(CCN(C)C)c2)n1 [Example A-182, 5-[(2R,3R)-3-(4-cyclopropylbenzamido)-2-methylpiperidin-1-yl]-3-({1-[2-(dimethylamino)ethyl]-1H-pyrazol-4-yl}amino)pyrazine-2-carboxamide] | 0.01 to 0.1 | 0.1 to 1 | 1 to 10 | 1 to 10 | 0.1 to 1 | 0.1 to 1 |
| Cc1cc(Nc2nc(N3CCC[C@@H](NC(=O)N4Cc5ccccc5C4=O)C3)cnc2C(N)=O)sn1 [Example A-183, N-[(3R)-1-{5-carbamoyl-6-[(3-methyl-1,2-thiazol-5-yl)amino]pyrazin-2-yl}piperidin-3-yl]-1-oxo-2,3-dihydro-1H-isoindole-2-carboxamide] | ≤ 0.01 | 0.01 to 0.1 | 0.01 to 0.1 | 0.1 to 1 | 0.01 to 0.1 | 0.01 to 0.1 |
| C[C@@H]1[C@H](NC(=O)c2ccc(C(C)(C)C)cc2)CCCN1c1cnc(C(N)=O)c(Nc2ccc(N3CCN(C)CC3)cc2)n1 [Example A-184, 5-[(2R,3R)-3-(4-tert-butylbenzamido)-2-methylpiperidin-1-yl]-3-{[4-(4-methylpiperazin-1-yl)phenyl]amino}pyrazine-2-carboxamide] | ≤ 0.01 | > 10 | 0.1 to 1 | 1 to 10 | 1 to 10 | 0.01 to 0.1 |
| COCCN(C)Cc1cc(Nc2nc(N3CCC[C@@H](NC(=O)c4ccc(C5CC5)cc4)[C@H]3C)cnc2C(N)=O)sn1 [Example A-185, 5-((2R,3R)-3-(4-cyclopropylbenzamido)-2-methylpiperidin-1-yl)-3-(3-(((2-methoxyethyl)(meth-yl)amino)meth-yl)isothiazol-5-ylamino)pyr-azine-2-carboxamide] | ≤ 0.01 | 0.1 to 1 | 0.1 to 1 | > 10 | 0.01 to 0.1 | 0.1 to 1 |
| COCCn1cc(Nc2nc(N3CCC[C@@H](NC(=O)c4ccc(C5CC5)cc4)[C@H]3C)cnc2C(N)=O)cn1 [Example A-186, 5-((2R,3R)-3-(4-cyclopropylbenzamido)-2-methylpiperidin-1-yl)-3-(1-(2-methoxylethyl)-1H-pyrazol-4-ylamino)pyrazine-2-carboxamide] | ≤ 0.01 | 0.1 to 1 | 0.1 to 1 | 1 to 10 | 0.1 to 1 | 0.1 to 1 |
| Cn1cc(Nc2nc(N3C[C@@H](NC(=O)c4ccc(C5CC5)cc4)CC(F)(F)C3)cnc2C(N)=O)cn1 [Example A-187, (S)-5-(5-(4-cyclopropylbenzamido)-3,3-difluoropiperidin-1-yl)-3-(1-methyl-1H-pyrazol-4-ylamino)pyrazine-2-carboxamide] | 0.1 to 1 | > 10 | > 10 | 1 to 10 | > 10 | 1 to 10 |
| Cn1cc(Nc2nc(N3C[C@H](NC(=O)c4ccc(C5CC5)cc4)CC(F)(F)C3)cnc2C(N)=O)cn1 [Example A-188, (R)-5-(5-(4-cyclopropylbenzamido)-3,3-difluoropiperidin-1-yl)-3-(1-methyl-1H-pyrazol-4-ylamino)pyrazine-2-carboxamide] | ≤ 0.01 | 0.1 to 1 | 1 to 10 | 1 to 10 | 0.1 to 1 | 0.1 to 1 |
| C[C@@H]1[C@H](NC(=O)c2ccc(C3CC3)c(Cl)c2)CCCN1c1cnc(C(N)=O)c(Nc2ccc(N3CCN(C)CC3)cc2)n1 [Example A-189, 5-((2R,3R)-3-(3-chloro-4-cyclopropylbenzamido)-2-methylpiperidin-1-yl)-3-(4-(4-methylpiperazin-1-yl)phenylamino)pyrazine-2-carboxamide] | ≤ 0.01 | 0.1 to 1 | 0.1 to 1 | 1 to 10 | 0.1 to 1 | 0.1 to 1 |

Reference: patent US20210070748A1, “INHIBITORS OF BRUTONS TYROSINE KINASE” (Pharmacyclics LLC, priority 2015, published 2021)
